Test results published in patent US20240174618A1, “SUBSTITUTED (2-HETEROARYLOXYPHENYL)SULFONATES, SALTS THEREOF AND THEIR USE AS HERBICIDAL AGENTS” (Bayer Aktiengesellschaft, priority 2021, published 2024).

Assays:
Type in all cases: in vivo
Zea mays (ZEAMX) [1] = experiment: F. Post-emergence effect on useful plants, ZEAMX; conditions: useful plant, application rate 80 g/ha
Outline: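 Crop plants grown in sandy loam in the greenhouse were sprayed at the one-leaf stage, 2-3 weeks after sowing, with WP or EC formulations plus 0.5% additive at 600 l/ha water. Damage was scored visually after about 3 weeks against untreated controls (0% = like control, 100% = dead).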

[2] = tested on: Amaranthus retroflexus (AMARE); experiment: E. Herbicidal post-emergence efficacy, AMARE
Outline: (§1)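 Greenhouse weeds were treated post-emergence at the one-leaf stage, 2-3 weeks after sowing in sandy loam, with WP or EC formulations sprayed as aqueous suspension/emulsion plus 0.5% additive at 600 l/ha, at 320 g/ha or less. Efficacy was rated visually after about 3 weeks versus untreated controls (100% = dead, 0% = like control).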

Avena fatua (AVEFA) = experiment: C. Herbicidal pre-emergence efficacy, AVEFA; conditions: 320 g/ha, scored after about 3 weeks
Text: Seeds of monocotyledonous and dicotyledonous weed plants and crop plants were placed in plastic or organic planting pots and covered with soil. The compounds of the invention, formulated in the form of wettable powders (WP) or as emulsion concentrates (EC), were then applied to the surface of the covering soil as aqueous suspension or emulsion with addition of 0.5% additive at a water application rate equivalent to 600 l/ha (converted). After the treatment, the pots were placed in a greenhouse and kept under good growth conditions for the test plants. After about 3 weeks, the efficacy of the preparations was scored visually in comparison with untreated controls as percentages. For example, • 100% efficacy=plants have died, • 0% efficacy=like untreated control plants.
Tables C1a to C14b below show the effects of selected compounds of the general formula (I) according to table 1 on various harmful plants at an application rate corresponding to 320 g/ha or less, which were obtained by the experimental procedure mentioned above.

Lolium rigidum (LOLRI) = experiment: B. Herbicidal post-emergence efficacy, LOLRI
Outline: (§2)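 Readout: visual % kill vs untreated, ~3 wk post-spray. Plants in sandy loam pots, treated at one-leaf stage; spray = WP/EC in water + 0.5% additive, 600 L/ha, dose ≤1280 g/ha.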

[3] = tested on: Pharbitis purpurea (PHBPU); experiment: C. Herbicidal pre-emergence efficacy, PHBPU; conditions: scored after about 3 weeks
Outline: (§3)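 Pre-emergence test: formulated compounds sprayed as aqueous suspension or emulsion with 0.5% additive at 600 l/ha onto soil covering sown seeds, at rates corresponding to 320 g/ha or less. After about 3 weeks in greenhouse, efficacy scored visually as percent versus untreated controls (100% = plants dead).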

Stellaria media (STEME) = experiment: B. Herbicidal post-emergence efficacy, STEME
Outline: as §2

[4] = tested on: Alopecurus myosuroides (ALOMY); experiment: E. Herbicidal post-emergence efficacy, ALOMY
Outline: as §1

Zea mays (ZEAMX) [5] = experiment: D. Pre-emergence effect on useful plants, ZEAMX; conditions: useful plant, application rate 80 g/ha
Outline: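 Seeds sown in pots and covered with soil; WP or EC formulations sprayed on the soil surface as aqueous suspension/emulsion with 0.5% additive at 600 l/ha water. Plants grown in greenhouse; crop damage scored visually after about 3 weeks as % versus untreated controls (100% = dead, 0% = like control).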

[6] = tested on: Digitaria sanguinalis (DIGSA); experiment: E. Herbicidal post-emergence efficacy, DIGSA
Outline: as §1

Kochia scoparia (KCHSC) = experiment: C. Herbicidal pre-emergence efficacy, KCHSC
Outline: as §3

Row | SMILES | Post-emergence efficacy against ZEAMX in % (Zea mays (ZEAMX) [1]) [%] | Post-emergence efficacy against AMARE in % ([2]; application rate 80 g/ha) [%] | Post-emergence efficacy against AMARE in % ([2]; application rate 320 g/ha) [%] | Pre-emergence efficacy against AVEFA (Avena fatua (AVEFA)) [%] | Post-emergence efficacy against LOLRI (Lolium rigidum (LOLRI); 1280 g/ha) [%] | Pre-emergence efficacy against PHBPU ([3]; 320 g/ha) [%] | Post-emergence efficacy against STEME (Stellaria media (STEME); 80 g/ha) [%] | Post-emergence efficacy against STEME (Stellaria media (STEME); 320 g/ha) [%] | Post-emergence efficacy against STEME (Stellaria media (STEME); 1280 g/ha) [%] | Post-emergence efficacy against ALOMY in % ([4]; application rate 320 g/ha) [%] | Pre-emergence efficacy against ZEAMX in % (Zea mays (ZEAMX) [5]) [%] | Post-emergence efficacy against DIGSA in % ([6]; application rate 320 g/ha) [%] | Post-emergence efficacy against LOLRI (Lolium rigidum (LOLRI); 320 g/ha) [%] | Pre-emergence efficacy against PHBPU ([3]; 80 g/ha) [%] | Pre-emergence efficacy against KCHSC in % (Kochia scoparia (KCHSC); application rate 80 g/ha) [%] | Pre-emergence efficacy against KCHSC in % (Kochia scoparia (KCHSC); application rate 320 g/ha) [%] | Post-emergence efficacy against DIGSA in % ([6]; application rate 80 g/ha) [%] | Post-emergence efficacy against ALOMY in % ([4]; application rate 80 g/ha) [%]
1 | O=S(=O)(CCCCl)Oc1ccccc1Oc1ncc(Cl)cn1 [Example I-2] | 20 | 100 | 100 | 100 | 90 | 90 | 90 | 100 | 100 | 90 |  |  |  |  |  |  |  | 
2 | O=S(=O)(CCC(F)(F)F)Oc1c(F)cccc1Oc1ncc(Cl)cn1 [Example I-48] | 0 | 100 | 100 | 100 | 90 | 100 | 90 | 90 | 90 | 100 | 0 | 100 | 90 | 100 | 100 | 100 |  | 
3 | O=S(=O)(CC1CC(F)(F)C1)Oc1c(F)cccc1Oc1ncc(Cl)cn1 [Example I-53] |  | 100 | 100 | 80 | 90 | 100 | 90 | 90 | 90 | 100 |  | 90 |  | 100 | 100 | 100 | 90 | 90
